Key:
[1] = human gut metagenome, 24 h, 2 µM
[2] = The drug is tested on Z-025 corresponding to rabbit gut metagenome with ENA study accession number: PRJEB37062 and ENA sample accession number: ERS12561824 for biotransformation under anaerobic condition. The drug concentrations were measured over 9 timepoints collected between 0 and 24 hours of incubation by liquid-chromatography-coupled mass spectrometry (LC–MS); details: 2 µM
[3] = The drug is tested on Z-014 corresponding to rat gut metagenome with ENA study accession number: PRJEB37062 and ENA sample accession number: ERS12561814 for biotransformation under anaerobic condition. The drug concentrations were measured over 9 timepoints collected between 0 and 24 hours of incubation by liquid-chromatography-coupled mass spectrometry (LC–MS); details: 2 µM
[4] = The drug is tested on Z-029 corresponding to rat gut metagenome with ENA study accession number: PRJEB37062 and ENA sample accession number: ERS12561828 for biotransformation under anaerobic condition. The drug concentrations were measured over 9 timepoints collected between 0 and 24 hours of incubation by liquid-chromatography-coupled mass spectrometry (LC–MS); details: 2 µM
[5] = The drug is tested on Z-016 corresponding to mouse gut metagenome with ENA study accession number: PRJEB37062 and ENA sample accession number: ERS12561815 for biotransformation under anaerobic condition. The drug concentrations were measured over 9 timepoints collected between 0 and 24 hours of incubation by liquid-chromatography-coupled mass spectrometry (LC–MS); details: 2 µM
[6] = The drug is tested on Z-004 corresponding to metagenome with ENA study accession number: PRJEB37062 and ENA sample accession number: ERS12561804 for biotransformation under anaerobic condition. The drug concentrations were measured over 9 timepoints collected between 0 and 24 hours of incubation by liquid-chromatography-coupled mass spectrometry (LC–MS); details: 2 µM
[7] = human gut metagenome, 24 h, 2 µM; remark: listed apart in the source
[8] = The drug is tested on WLS-170 corresponding to human gut metagenome with ENA study accession number: PRJEB37062 and ENA sample accession number: ERS12561762 for biotransformation under anaerobic condition. The drug concentrations were measured over 9 timepoints collected between 0 and 24 hours of incubation by liquid-chromatography-coupled mass spectrometry (LC–MS); details: 2 µM
[9] = human gut metagenome, 24 h, 2 µM; remark: listed apart in the source
Also: call rule not given here.

Row | SMILES | Bacterial Biotransformation [1] | Bacterial Biotransformation [2] | Bacterial Biotransformation [3] | Bacterial Biotransformation [4] | Bacterial Biotransformation [5] | Bacterial Biotransformation [6] | Bacterial Biotransformation [7] | Bacterial Biotransformation [8] | Bacterial Biotransformation [9]
1 | COC(=O)C(c1ccccc1)C1CCCCN1 (stereo not drawn) [METHYLPHENIDATE] | Compound NOT metabolized | Compound NOT metabolized | Compound NOT metabolized | Compound NOT metabolized | Compound NOT metabolized | Compound metabolized | Compound metabolized | Compound metabolized | Compound NOT metabolized
2 | CC(=O)CCCCn1c(=O)c2c(ncn2C)n(C)c1=O [PENTOXIFYLLINE] | Compound NOT metabolized | Compound NOT metabolized | Compound NOT metabolized | Compound NOT metabolized | Compound NOT metabolized | Compound NOT metabolized | Compound NOT metabolized | Compound metabolized | Compound NOT metabolized
3 | COC(=O)[C@H](c1ccccc1Cl)N1CCc2sccc2C1.O=S(=O)(O)O [CLOPIDOGREL BISULFATE] | Compound metabolized | Compound metabolized | Compound NOT metabolized | Compound NOT metabolized | Compound metabolized | Compound metabolized | Compound metabolized | Compound metabolized | Compound NOT metabolized
4 | Cc1cc(C)cc(OCC2CNC(=O)O2)c1 (stereo not drawn) [METAXALONE] | Compound NOT metabolized | Compound NOT metabolized | Compound NOT metabolized | Compound NOT metabolized | Compound NOT metabolized | Compound NOT metabolized | Compound metabolized | Compound metabolized | Compound metabolized
5 | COC1=C(OC)C(=O)C(CCCCCCCCCCO)=C(C)C1=O [IDEBENONE] | – | Compound metabolized | Compound metabolized | Compound NOT metabolized | Compound metabolized | Compound NOT metabolized | Compound metabolized | Compound NOT metabolized | Compound metabolized
6 | CN1[C@@H]2CC[C@H]1C[C@@H](OC(=O)[C@H](CO)c1ccccc1)C2 [HYOSCYAMINE] | – | Compound NOT metabolized | Compound NOT metabolized | Compound NOT metabolized | – | Compound NOT metabolized | – | Compound metabolized | –
7 | CC(=O)O[C@H]1C(=O)[C@@]2(C)[C@H]([C@H](OC(=O)c3ccccc3)[C@]3(O)C[C@H](OC(=O)[C@H](O)[C@@H](NC(=O)c4ccccc4)c4ccccc4)C(C)=C1C3(C)C)[C@]1(OC(C)=O)CO[C@@H]1C[C@@H]2O [PACLITAXEL] | Compound NOT metabolized | Compound metabolized | Compound metabolized | Compound NOT metabolized | Compound metabolized | Compound NOT metabolized | Compound NOT metabolized | Compound NOT metabolized | –
8 | CCOC(=O)[C@H](CCc1ccccc1)N[C@@H](C)C(=O)N1CCC[C@H]1C(=O)O.O=C(O)/C=C\C(=O)O [ENALAPRIL MALEATE] | Compound NOT metabolized | Compound NOT metabolized | – | Compound NOT metabolized | – | Compound NOT metabolized | Compound NOT metabolized | Compound NOT metabolized | Compound NOT metabolized
9 | CSc1ccc2c(c1)C(N1CCN(C)CC1)Cc1ccccc1S2.O=C(O)/C=C\C(=O)O (stereo not drawn) | Compound NOT metabolized | – | Compound NOT metabolized | Compound NOT metabolized | Compound metabolized | Compound metabolized | Compound NOT metabolized | Compound metabolized | –
10 | C#C[C@]1(OC(C)=O)CC[C@H]2[C@@H]3CCC4=CC(=O)CC[C@@H]4[C@H]3CC[C@@]21C [NORETHINDRONE ACETATE] | Compound metabolized | Compound metabolized | – | Compound metabolized | – | – | Compound metabolized | Compound metabolized | –
11 | CCc1oc2ccccc2c1C(=O)c1cc(Br)c(O)c(Br)c1 [BENZBROMARONE] | Compound NOT metabolized | Compound NOT metabolized | Compound NOT metabolized | Compound NOT metabolized | Compound NOT metabolized | Compound NOT metabolized | Compound metabolized | Compound metabolized | –
12 | Cc1cc2c(s1)Nc1ccccc1N=C2N1CCN(C)CC1 [OLANZAPINE] | Compound NOT metabolized | Compound metabolized | Compound NOT metabolized | Compound NOT metabolized | Compound NOT metabolized | Compound metabolized | Compound NOT metabolized | – | Compound NOT metabolized
13 | CC(=O)OCC(=O)NCCCOc1cccc(CN2CCCCC2)c1 [ROXATIDINE ACETATE] | Compound metabolized | Compound metabolized | Compound metabolized | Compound metabolized | Compound metabolized | Compound metabolized | Compound metabolized | – | Compound metabolized
14 | CN1C[C@H](C(=O)N[C@]2(C)O[C@@]3(O)[C@@H]4CCCN4C(=O)[C@H](Cc4ccccc4)N3C2=O)C[C@@H]2c3cccc4[nH]cc(c34)C[C@H]21.CS(=O)(=O)O [DIHYDROERGOTAMINE MESYLATE] | – | Compound metabolized | Compound NOT metabolized | Compound NOT metabolized | Compound NOT metabolized | Compound NOT metabolized | – | – | –
15 | CCCCCNC(=N)N/N=C/c1c[nH]c2ccc(OC)cc12.O=C(O)/C=C\C(=O)O [TEGASEROD MALEATE] | Compound NOT metabolized | – | Compound NOT metabolized | Compound NOT metabolized | Compound NOT metabolized | Compound NOT metabolized | Compound metabolized | Compound metabolized | Compound metabolized
16 | Cc1ccc(NC(=O)c2ccc(CN3CCN(C)CC3)cc2)cc1Nc1nccc(-c2cccnc2)n1 [IMATINIB] | – | Compound NOT metabolized | Compound NOT metabolized | Compound NOT metabolized | Compound NOT metabolized | Compound NOT metabolized | – | – | –
